# Assay results reported in US7547729B2, “1,3-diphenylprop-2-en-1-one derivative compounds, preparation method thereof and uses of same” (Genfit, priority 2004, dated 2009).
# Legend:
# LDL = assay: Protection against LDL oxidation by copper (conjugated diene formation); assay type: biochemical; conditions: 10^−4M
# Summary of the method: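 EDTA-free LDL (125 μg protein/ml) was oxidized at 30° C. with CuSO4 (16.6 μM solution) plus compound at 0.1–100 μM final. Conjugated dienes followed by OD 232 nm every 10 min for 8 h, in triplicate; activity judged by lag-phase lengthening, reduced oxidation rate and diene amount versus control.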
# PPARα = molecular target: T1, PPARα (Homo sapiens, UniProt Q07869); assay: PPARα/Gal4 transactivation system in COS-7 cells; assay type: cell-based; conditions: 24 hours
# T1 construct: expressed in transfected cells; host or cells: COS-7 cells
# T1 sequence (Q07869 239-466 limits assumed): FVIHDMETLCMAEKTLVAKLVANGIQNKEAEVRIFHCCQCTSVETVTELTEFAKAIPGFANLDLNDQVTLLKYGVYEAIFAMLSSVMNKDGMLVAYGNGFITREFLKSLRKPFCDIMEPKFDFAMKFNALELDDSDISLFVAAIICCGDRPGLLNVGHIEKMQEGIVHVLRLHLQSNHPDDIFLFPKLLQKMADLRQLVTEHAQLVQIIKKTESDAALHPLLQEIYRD
# Summary of the method: (§1)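 COS-7 cells transfected with Gal4-DBD/human PPAR ligand-binding-domain chimeras, pG5TkpGL3 luciferase reporter and pRL-CMV control, then treated with compound concentrations for 24 hours (protocol also states 36 hours). Luciferase measured by Steady Glow; results given as induction factor, luminescence with compound over that without.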
# PPARγ = molecular target: T2, PPARγ (Homo sapiens, UniProt P37231); assay: PPARγ/Gal4 transactivation system in COS-7 cells; assay type: cell-based; conditions: 24 hours
# T2 construct: expressed in transfected cells; host or cells: COS-7 cells
# T2 sequence (P37231 238-503 limits assumed): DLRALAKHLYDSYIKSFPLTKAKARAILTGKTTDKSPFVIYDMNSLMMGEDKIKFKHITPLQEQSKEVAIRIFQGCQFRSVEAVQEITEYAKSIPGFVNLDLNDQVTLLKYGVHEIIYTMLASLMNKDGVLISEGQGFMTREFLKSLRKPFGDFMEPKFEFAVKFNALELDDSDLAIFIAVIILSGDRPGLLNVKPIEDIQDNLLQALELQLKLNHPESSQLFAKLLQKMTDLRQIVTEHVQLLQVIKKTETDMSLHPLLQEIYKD
# Summary of the method: as §1
# PPARδ = molecular target: T3, PPARδ (Homo sapiens, UniProt Q03181); assay: PPARδ/Gal4 transactivation system in COS-7 cells; assay type: cell-based; conditions: 24 hours
# T3 construct: expressed in transfected cells; host or cells: COS-7 cells
# T3 sequence (Q03181 211-439 limits assumed): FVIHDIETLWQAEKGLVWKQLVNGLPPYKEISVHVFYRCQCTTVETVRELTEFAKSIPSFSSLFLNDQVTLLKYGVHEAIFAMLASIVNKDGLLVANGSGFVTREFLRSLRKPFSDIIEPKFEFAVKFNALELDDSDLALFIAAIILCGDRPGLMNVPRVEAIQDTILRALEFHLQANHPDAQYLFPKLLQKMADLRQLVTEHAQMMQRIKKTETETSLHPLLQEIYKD
# Description: COS-7 cells were incubated with different concentrations of the inventive compounds for 24 hours. The results are expressed as the induction factor (ratio of luminescent signal obtained with the compound and that observed without the compound) after the different treatments.
# PPAR activation was tested in vitro in RK13 epitheloid or COS-7 cell lines by measuring the transcriptional activity of chimeras composed of the DNA binding domain of the yeast gal4 transcription factor and the ligand binding domain of the different PPARs. These latter results were then confirmed in cell lines according to the following protocols:
# RK13 cells were from ECACC (Porton Down, UK), COS-7 cells were from the ATCC (American Type Culture Collection) and were grown in DMEM medium supplemented with 10% (VN) fetal calf serum, 100 U/ml penicillin (Gibco, Paisley, UK) and 2 mM L-glutamine (Gibco, Paisley, UK). The culture medium was changed every two days. Cells were kept at 37° C. in a humidified 95% air/5% CO2 atmosphere.
# The plasmids pG5TkpGL3, pRL-CMV, pGal4-hPPARα, pGal4-hPPARγ, pGal4-hPPARδ and pGal4-φ have been described by Raspe, Madsen et al. (1999). The pGal4-mPPARα, pGal4-hPPARγ and pGal4-hPPARδ constructs were obtained by cloning into the pGal4-φ vector of PCR-amplified DNA fragments corresponding to the DEF domains of the human PPARα, PPARγ and PPARδ nuclear receptors.
# RK13 cells were seeded in 24-well culture dishes at 5×10^4 cells/well, COS-7 cells in 96-well culture dishes at 5×10^4 cells/well and transfected for 2 hours with the reporter plasmid pG5TkpGL3 (50 ng/well), the expression vectors pGal4-φ, pGal4-mPPARα, pGal4-hPPARα, pGal4-hPPARγ, pGal4-hPPARδ (100 ng/well) and the transfection efficiency control vector pRL-CMV (1 ng/well) according to the previously described protocol (Raspe, Madsen et al. 1999), then incubated for 36 hours with the test compounds. At the end of the experiment, the cells were lysed (Gibco, Paisley, UK) and luciferase activity was determined with a Dual-Luciferase™ Reporter Assay System kit (Promega, Madison, Wis., USA) for RK13 cells and Steady Glow Luciferase (Promega) for COS-7 cells according to the supplier's instructions as previously described. The protein content of the cell extracts was then measured with the Bio-Rad Protein Assay (Bio-Rad, Munich, Germany) as directed by the supplier.
# naive CD4+ T cells = assay: Mixed Lymphocyte Reaction (MLR), BrdU incorporation; assay type: cell-based
# Description: FIG. 23 illustrates a Mixed Lymphocyte Reaction (MLR) carried out in the presence of increasing amounts of dendritic cells treated or not with compound 31 and incubated with naive CD4+ T cells for seven days. T cell proliferation was determined by BrdU (bromodeoxyuridine) incorporation.
# For this experiment, increasing amounts of mature dendritic cells (treated or not with the compound) were incubated with a fixed amount of naive CD4+ T cells from another donor. After a 5-day incubation, BrdU (bromodeoxyuridine) was added for 24 hours and the incorporation thereof in T cells was determined by ELISA with anti-BrdU antibodies coupled to chemiluminescent tags.
smiles,measurement,setting,value
"Cc1cc(/C=C/C(=O)c2c(C)c(C)c(C)c(C)c2C)cc(C)c1OC(C)(C)C(=O)O [compound 31, 1-(2,3,4,5,6-Pentamethylphenyl)-3-(4-carboxydimethylmethyloxy-3,5-dimethylphenyl)prop-2-en-1-one]",kinetics of LDL oxidation (lag phase),"LDL; FIG. 5a, no control value printed",124.5 min
same,LDL oxidation rate,"LDL; FIG. 5b, absence of compounds 2",1.4 nmol/min/mg
same,total amount of dienes formed,"LDL; FIG. 5c, absence of compounds 386",352 nmol/mg
same,Induction factor,PPARα; 0.001 μM,1.10
same,Induction factor,PPARα; 0.003 μM,1.09
same,Induction factor,PPARα; 0.01 μM,1.23
same,Induction factor,PPARα; 0.03 μM,1.23
same,Induction factor,PPARα; 0.1 μM,1.23
same,Induction factor,PPARα; 0.3 μM,1.73
same,Induction factor,PPARα; 1 μM,1.88
same,Induction factor,PPARα; 3 μM,3.69
same,Induction factor,PPARα; 10 μM,6.03
same,Induction factor,PPARγ; 0.001 μM,1.44
same,Induction factor,PPARγ; 0.003 μM,2.19
same,Induction factor,PPARγ; 0.01 μM,3.06
same,Induction factor,PPARγ; 0.03 μM,4.87
same,Induction factor,PPARγ; 0.1 μM,5.99
same,Induction factor,PPARγ; 0.3 μM,6.96
same,Induction factor,PPARγ; 1 μM,7.05
same,Induction factor,PPARγ; 3 μM,7.79
same,Induction factor,PPARδ; 0.001 μM,1.00
same,Induction factor,PPARδ; 0.003 μM,1.05
same,Induction factor,PPARδ; 0.01 μM,1.09
same,Induction factor,PPARδ; 0.03 μM,1.16
same,Induction factor,PPARδ; 0.1 μM,1.35
same,Induction factor,PPARδ; 0.3 μM,2.67
same,Induction factor,PPARδ; 1 μM,4.12
same,Induction factor,PPARδ; 3 μM,10.82
same,Induction factor,PPARδ; 10 μM,11.70
same,capacity of treated dendritic cells to induce proliferation of naive CD4+ T cells,naive CD4+ T cells,lower capacity
